Data taken from ChEMBL document CHEMBL3137667, “[Drug-induced liver injury; fourteenth updated edition of the bibliographic database of liver injuries and related drugs]” (Gastroenterol Clin Biol, 2004).

How the values were obtained:
[1] = Highest frequency of moderate liver toxicity observed during clinical trials, expressed as a percentage. [column '% BIOL' in source]; details: human
[2] = Highest frequency of acute liver toxicity observed during clinical trials, expressed as a percentage. [column '% AIGUE' in source]; details: human
[3] = Presence of at least one case with successful reintroduction. [column 'REINT' in source]; details: human
[4] = Times to onset, minimal and maximal, observed in the indexed observations. [column 'DELAI' in source]; details: human
[5] = Proposed mechanism(s) of liver damage. [column 'MEC' in source]; details: human
[6] = human, serum
[7] = human, serum; remark: listed apart in the source
[8] = human
[9] = human; remark: listed apart in the source
[10] = human; remark: listed apart in the source
[11] = human, serum, 4383 h
[12] = human; remark: listed apart in the source
[13] = human; remark: listed apart in the source
[14] = human; remark: listed apart in the source
[15] = human; remark: listed apart in the source
[16] = human; remark: listed apart in the source
[17] = human; remark: listed apart in the source
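Wherever Hepatotoxicity (association with vascular disease) is given: count of indexed literature references reporting vascular liver injury in humans, e.g. peliosis hepatitis, hepatic veno-occlusive disease or Budd-Chiari syndrome.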
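Wherever Hepatotoxicity (benign tumour) is given: value is a count of indexed literature references citing a benign tumour confirmed by histopathology.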
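Wherever Hepatotoxicity (choleostasis) is given: human cholestatic liver injury, shown by histopathology or by peak ALT or AST elevation over alkaline phosphatase ratio below 2, value counts indexed literature reports.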
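Wherever Hepatotoxicity (chronic liver disease) is given: chronic liver injury confirmed by histopathology or persistently raised serum aminotransferase activity beyond 6 months, value given as the count of indexed literature references.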
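Wherever Hepatotoxicity (cirrhosis) is given: value is a count of indexed literature references reporting cirrhosis confirmed by histopathology.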
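Wherever Hepatotoxicity (cytolytic) is given: human cytolytic liver injury, shown by histopathology or by a ratio above 5 of peak ALT or AST elevation to alkaline phosphatase elevation, value counts indexed references.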
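Wherever Hepatotoxicity (granulomatous hepatitis) is given: value is a count of indexed literature references reporting granulomatous liver disease confirmed by histopathology.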
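Wherever Hepatotoxicity (malignant tumour) is given: malignant tumour confirmed by histopathology, value gives the count of indexed literature references reporting it.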
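Wherever Hepatotoxicity (severe hepatitis) is given: human clinical data: severe hepatitis, meaning potentially life-threatening liver failure or clinically observed cases, the value counts how many indexed literature references report it.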
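Wherever Hepatotoxicity (steatosis) is given: steatosis confirmed by histopathology, value is the count of indexed references.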

Row | Structure (SMILES) | Hepatotoxicity (moderate) [1] [%] | Hepatotoxicity (acute) [2] [%] | Hepatotoxicity (successful reintroduction) [3] | Hepatotoxicity (time to onset) [4] | Hepatotoxicity (mechanism) [5] | Hepatotoxicity (moderate) [6] | Hepatotoxicity (acute) [7] | Hepatotoxicity (cytolytic) [8] | Hepatotoxicity (choleostasis) [9] | Hepatotoxicity (severe hepatitis) [10] | Hepatotoxicity (chronic liver disease) [11] | Hepatotoxicity (cirrhosis) [12] | Hepatotoxicity (granulomatous hepatitis) [13] | Hepatotoxicity (association with vascular disease) [14] | Hepatotoxicity (steatosis) [15] | Hepatotoxicity (malignant tumour) [16] | Hepatotoxicity (benign tumour) [17] | other results
1 | O=C1c2ccccc2C(=O)C1c1ccccc1 [PHENINDIONE] | 0 | 0.2 | yes | 1 week - 2 months | Allergic | 1 | 13 | 3 | 11 | 1 | 0 | 0 | 1 | 0 | 0 | 0 | 0 | –
2 | CCc1cc(C(N)=S)ccn1 [ETHIONAMIDE] | – | – | yes | 1 month - 2 years | – | 11 | 15 | – | – | – | 0 | 0 | – | 0 | 0 | 0 | 0 | Hepatotoxicity (moderate) ([1]; Liver): 37%; Hepatotoxicity (acute) ([2]; Liver): 5.4%; Hepatotoxicity (mechanism) ([5]; Liver): Allergic; Hepatotoxicity (cytolytic) ([8]; Liver): 7; Hepatotoxicity (choleostasis) ([9]; Liver): 6; Hepatotoxicity (severe hepatitis) ([10]; Liver): 2; Hepatotoxicity (granulomatous hepatitis) ([13]; Liver): 0
3 | Cc1cccc(Nc2ccccc2C(=O)O)c1C [MEFENAMIC ACID] | – | – | yes | 2 weeks | – | 0 | 3 | – | – | – | 0 | 0 | – | 0 | 0 | 0 | 0 | Hepatotoxicity (moderate) ([1]; Liver): 0%; Hepatotoxicity (acute) ([2]; Liver): 0%; Hepatotoxicity (mechanism) ([5]; Liver): Allergic; Hepatotoxicity (cytolytic) ([8]; Liver): 2; Hepatotoxicity (choleostasis) ([9]; Liver): 1; Hepatotoxicity (severe hepatitis) ([10]; Liver): 1; Hepatotoxicity (granulomatous hepatitis) ([13]; Liver): 0
4 | CC[C@@H](CO)NCCN[C@@H](CC)CO [ETHAMBUTOL] | 0 | 0 | yes | 1.5 months - 2 months | Allergic | 1 | 6 | 1 | 1 | 0 | 0 | 0 | 0 | 0 | 0 | 0 | 0 | –
5 | CN1C(=O)CCS(=O)(=O)C1c1ccc(Cl)cc1 (stereo unspecified) [CHLORMEZANONE] | 0 | 0 | yes | 1 day - 4 weeks | Allergic, Dose-dependant | 0 | 8 | 1 | 7 | 2 | 0 | 0 | 0 | 0 | 0 | 0 | 0 | –
6 | CCCCCCCCNC(C)C(O)c1ccc(SC(C)C)cc1 (stereo unspecified) [SULOCTIDIL] | 15 | 0.5 | yes | 1 week - 1 year | Allergic | 3 | 8 | 7 | 3 | 2 | 1 | 4 | 0 | 0 | 1 | 0 | 0 | –
7 | CC(=O)Oc1cc(C(C)C)c(OCCN(C)C)cc1C [MOXISYLYTE] | 0 | 0 | yes | 8 days - 3 months | Allergic, Dose-dependant | 1 | 5 | 5 | 1 | 0 | 0 | 0 | 0 | 0 | 0 | 0 | 0 | –
8 | CCN(CC)Cc1cc(Nc2ccnc3cc(Cl)ccc23)ccc1O.Cl | – | – | yes | 1 week - 1 year | – | 2 | 18 | – | – | – | 0 | 1 | – | 0 | 0 | 0 | 0 | Hepatotoxicity (moderate) ([1]; Liver): 0%; Hepatotoxicity (acute) ([2]; Liver): 6.7%; Hepatotoxicity (mechanism) ([5]; Liver): Allergic, Dose-dependant, Reactive metabolite; Hepatotoxicity (cytolytic) ([8]; Liver): 11; Hepatotoxicity (choleostasis) ([9]; Liver): 4; Hepatotoxicity (severe hepatitis) ([10]; Liver): 8; Hepatotoxicity (granulomatous hepatitis) ([13]; Liver): 0
9 | CCOC(N)=O | 0 | 0 | yes | 1 year - 2 years | Dose-dependant | 0 | 5 | 5 | 1 | 4 | 0 | 1 | 0 | 3 | 0 | 0 | 0 | –
10 | CN1C[C@H](CC#N)C[C@@H]2c3cccc4[nH]c(Cl)c(c34)C[C@H]21 [LERGOTRILE] | 63.2 | 15.8 | yes | 4 days - 5 months | Dose-dependant | 6 | 5 | 4 | 0 | 0 | 0 | 0 | 0 | 0 | 0 | 0 | 0 | –
11 | CO[C@]12CC[C@@]3(C[C@@H]1[C@](C)(O)C(C)(C)C)[C@H]1Cc4ccc(O)c5c4[C@@]3(CCN1CC1CC1)[C@H]2O5 [BUPRENORPHINE] | 71 | 0 | yes | 2 days - 3 months | Allergic, Overdose | 1 | 3 | 2 | 0 | 2 | 0 | 0 | 0 | 0 | 0 | 0 | 0 | –
12 | CC(C(=O)O)c1ccc(N2CC=CC2)c(Cl)c1 (stereo unspecified) [PIRPROFEN] | 2.8 | 0.3 | yes | 1 week - 1 year | Toxic Metabolite | 5 | 9 | 9 | 2 | 8 | 1 | 1 | 0 | 0 | 2 | 0 | 0 | –
13 | NCC(=O)CCC(=O)O [AMINOLEVULINIC ACID] | 66.7 | 0 | yes | 3 days | Dose-dependant | 7 | 0 | 0 | 0 | 0 | 0 | 0 | 0 | 0 | 0 | 0 | 0 | –
